One compound from ChEMBL document CHEMBL5214948, “Boronic Acid: A Novel Pharmacophore Targeting Src Homology 2 (SH2) Domain of STAT3” (J Med Chem, 2022) can be followed below.

pIC50: −log10 of the molar value.

The subject of one assay is MGC-803. The assay can be described thus: Antiproliferative activity against human MGC-803 cells assessed as reduction in cell viability measured after 72 hrs by CCK-8 assay. Type of assay: functional, cell-based. The conditions noted are these: MGC-803, 72 h.
The next assay has as its system AGS. The assay can be described thus: Antiproliferative activity against human AGS cells assessed as reduction in cell viability incubated for 72 hrs by CCK-8 assay. Format: functional, cell-based. In general terms: Formazan colour is commonly taken as a measure of viable cells.

With `C[C@@H](C(=O)N(Cc1ccc(C2CCCCC2)cc1)c1ccc(B(O)O)cc1)N(C)S(=O)(=O)c1c(F)c(F)c(F)c(F)c1F`, the pIC50 with MGC-803 is 5.33; in the assay on AGS it was 5.59.

Broadly, the pIC50 is the negative decadic logarithm of the IC50, by convention in mol/L.
